Assay results: patent publication US6395787B1, “Ocular hypotensive lipids” (Allergan Sales, Inc., priority 2000, dated 2002)

Key:
human FP receptor = human FP receptor (Homo sapiens, UniProt P43088); assay: Ca2+ signal in CRL 1497 cells; assay type: cell-based; set-up: endogenous in cells; host or cells: CRL 1497 human dermal fibroblasts; Δ[Ca^2+]i mean χ ± SEM: unit not given here; conditions: for Δ[Ca^2+]i mean χ ± SEM: n = 4
Method: Human CRL 1497 cells were plated in culture flasks and fed Dulbecco's modified Eagle's medium (DMEM) containing 10% fetal calf serum, 2 mM 1-glutamine, and 0.05 mg/ml gentacin (all purchased from Gibco, Grand Island, N.Y.). Cell cultures were maintained in a humidified atmosphere of 95% air, 5% CO2 and grown to confluency. Cells were removed from the culture flasks by approximately 1 min treatment with trypsin 0.05%/0.53 mM EDTA in Hanks Balanced Salt Solution (HBSS, Gibco, Grand Island, N.Y.) at 37° C. Proteolytic activity was arrested by adding 5 ml of 10% fetal bovine serum in DMEM. The cells were consecutively washed in Hank's BSS and medium containing 140 mM NaCl, […], 1 mM MgCl2, 1.5 mM CaCl2, 10 mM HEPES: TRIS, 5 mM glucose, 5 mM Na pyruvate, 0.1% bovine serum albumin at pH 7.4: Centrifugation for the washes was performed for 15 minutes at 200 g at room temperature. Cells were counted, resuspended in the above medium and incubated with 2×10^−6 M Fura 2/acetoxymethyl ester in a shaking water bath for 30 minutes at 37° C. The cells were subsequently washed in medium as above and resuspended at a concentration of 2×10^6 cells ml^−1. Aliquots of 0.5 ml cell suspension were then added to autocap microtubes to provide 10^6 cells per experimental determination of intracellular free Ca^2+ concentration ([Ca^2+]i).
Fluorescence was measured in a Perkin-Elmer LS-5 fluorescence spectrophotometer at excitation and emission wavelengths of 340 and 492 nm, respectively, with both slits at 10 nm. For each experimental determination 10^6 cells were washed (200×g for 5 min) and suspended in a 2 ml cuvette with buffer containing 120 mM NaCl, 6 mM KCl, 1 mM MgSO4, 1.5 mM CaCl2, 20 mM HEPES, 1 mg ml^−1 glucose and 1 mg ml^−1 Na pyruvate. Stirring was achieved by an overhead-mounted, paddle stirrer with the temperature maintained at 37° C. The cells were lysed with digitonin (10 μl of 100 mg ml^−1 DMSO) to obtain fmax. EGTA (100 mM) and sufficient 10N NaOH to adjust the pH to 8.5 were then successively added to obtain fmin.

[1] = system: isolated chick ileum (EP3 receptor preparation); assay: Isolated chick ileum contraction; conditions: compared to prostaglandin E2, 10^−6 M
Method: (§1) Smooth muscle tension of isolated tissues was measured isometrically with force displacement transducers (Grass FT-03) and recorded on Grass Polygraphs (Models 7G and 79E). The organ baths contained Krebs solution maintained at 37° C. and gassed with 95% 02/5% CO2 to give a pH of 7.4. The Krebs solution had the following composition (mM): NaCl, 118.0; KCl, 4.7; KH2PO4, 1.2; CaCl2, 1.9; MgSO4, 1.18; NaHCO3, 25.0; glucose, 11.7; indomethacin, 0.001.
The chick ileum is an EP3 receptor preparation. Portions of the chick ileum of 1.5 cm length were suspended under 1 g of tension. After a one hour equilibration period, a standard dose-response curve for PGE2 was obtained in a non-cumulative fashion with 30 minute wash-out periods between individual doses. Subsequently, test compound was added non-cumulatively. A maximal dose of PGE2 (10^−6 M) was finally given to serve as a second reference standard. Contractile activity at each concentration was then calculated as a % of the maximal PGE2 response reached at a 10^−6 M concentration.

[2] = biological target: recombinant feline FP receptor (Felis catus, UniProt A0ABI7XJ69); assay: Radioligand binding competition vs 3H-17-phenyl PGF2α, recombinant feline FP receptor; set-up: species or system cat
Method: Plasma membrane preparations of HEK 293 cells stably transfected with the human or feline FP receptor were obtained as follows. Cells washed with TME buffer were scraped from the bottom of the flasks and homogenized for 30 sec using a Brinkman PT 10/35 polytron. TME buffer was added as necessary to achieve a 40 ml volume in the centrifuge tubes. […] The cell homogenate was centrifuged at 19,000 rpm for 20 min at 4-6° C. using a Beckman Ti-60 rotor. The pellet was then resuspended in TME buffer to provide a final protein concentration of 1 mg/ml, as determined by Biorad assay. […] Incubations were for 60 min at 25° C. and were terminated by the addition of 4 ml of ice-cold 50 mM TRIS-HCl followed by rapid filtration through Whatman GF/B filters and three additional 4 ml washes in a cell harvester (Brandel).

[3] = system: isolated guinea pig vas deferens (EP3 receptor subtype); assay: Inhibition of field stimulated contraction of isolated guinea pig vas deferens
Method: as §1
Activity at the prostaglandin-sensitive EP3 receptor subtype was also determined by the ability of prostanoids to inhibit the smooth muscle twitch response stimulated by an electrical current in the isolated guinea pig vas deferens. 1.5 cm portions of the guinea pig vas deferens were suspended under 1 g initial tension and allowed to equilibrate for at least 30 minutes. Tissues were then subjected to stimulation every 30 seconds by 20 volt electrical pulses. After stabilization of the twitch response, a standard dose response curve to PGE2 was performed in a cumulative fashion. Test compounds were then evaluated by performing a cumulative dose response curve. Tissues were washed-out and allowed to equilibrate for 1 hr between compounds. PGE2 was once again evaluated at the conclusion of the experiment as a standard reference. Activity was calculated as the percent inhibition of the height of the muscle twitch response.

dog intraocular pressure = assay: Intraocular pressure in conscious Beagle dogs; assay type: in vivo; conditions: 0.1% dose, topical
Method: Intraocular pressure studies in dogs involved pneumatonometry performed in conscious, Beagle dogs of both sexes (10-15 kg). The animals remained conscious throughout the study and were gently restrained by hand. Drugs were administered topically to one eye as a 25 μL volume drop, the other eye received 25 μL vehicle (0.1% polysorbate 80:10 mM TRIS) as a control. 0.1% proparacaine was used for corneal anesthesia during tonometry. Intraocular pressure was determined just before drug administration and at 2, 4 and 6 hr thereafter on each day of the 5 day study. Drug was administered immediately after the first IOP reading.

Chain of human FP receptor (P43088 whole entry): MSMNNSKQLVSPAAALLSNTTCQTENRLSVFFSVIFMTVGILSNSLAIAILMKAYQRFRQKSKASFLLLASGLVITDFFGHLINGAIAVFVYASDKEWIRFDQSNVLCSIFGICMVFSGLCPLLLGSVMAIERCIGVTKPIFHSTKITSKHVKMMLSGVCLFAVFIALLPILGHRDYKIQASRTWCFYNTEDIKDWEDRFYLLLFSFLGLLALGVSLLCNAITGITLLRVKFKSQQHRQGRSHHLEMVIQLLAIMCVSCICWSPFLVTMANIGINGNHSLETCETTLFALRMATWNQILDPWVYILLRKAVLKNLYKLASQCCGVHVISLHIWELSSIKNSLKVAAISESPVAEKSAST
Chain of recombinant feline FP receptor (A0ABI7XJ69 entry or part of it): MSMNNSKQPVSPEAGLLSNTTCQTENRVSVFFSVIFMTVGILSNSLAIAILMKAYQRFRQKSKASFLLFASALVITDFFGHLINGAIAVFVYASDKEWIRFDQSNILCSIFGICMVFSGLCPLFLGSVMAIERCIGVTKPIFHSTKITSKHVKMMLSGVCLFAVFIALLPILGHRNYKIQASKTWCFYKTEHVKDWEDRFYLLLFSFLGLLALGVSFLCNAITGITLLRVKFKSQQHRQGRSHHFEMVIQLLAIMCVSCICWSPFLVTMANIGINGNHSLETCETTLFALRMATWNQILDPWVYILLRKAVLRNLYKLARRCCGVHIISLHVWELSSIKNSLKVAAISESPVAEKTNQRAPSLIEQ

- Δ[Ca^2+]i mean χ ± SEM (human FP receptor; 10^−5 M, CRL 1497 cells): 97.9 ± 10.8
- Δ[Ca^2+]i mean χ ± SEM (human FP receptor; 10^−6 M, CRL 1497 cells): 45.8 ± 11.5
- Δ[Ca^2+]i mean χ ± SEM (human FP receptor; 10^−7 M, CRL 1497 cells): 13.5 ± 3.9
- Δ[Ca^2+]i mean χ ± SEM (human FP receptor; 10^−8 M, CRL 1497 cells): 3.4 ± 1.5
- EC50 (human FP receptor; CRL 1497 human dermal fibroblasts, read-out: E.C.50, Ca2+ signal): 1590 nM
- affinity for the feline receptor ([2]; radioligand binding): only weak affinity
- IC50 ([2]; read-out: inhibitory concentration50 (I.C.50), radioligand binding): 882 nM
SMILES: CCCCC[C@H](O)/C=C/[C@@H]1[C@@H](C/C=C\CCCC(=O)NCCO)[C@@H](O)C[C@H]1O [PGF2α 1-ethanolamide, (5Z,8α,9α,11α,13E,15S)-9,11,15-trihydroxy-N-(2-hydroxyethyL)prosta-5,13-dien-1-amide]
- difference in potency at the human FP receptor vs PGF2α (human FP receptor; CRL 1497 cells, Ca2+ signal): about a one hundred fold difference in potency
- effect on the isolated chick ileum [1]: weak partial agonist
- inhibiting field stimulation evoked contraction [3]: modestly effective
- duration of intraocular pressure effect (dog intraocular pressure): persisted over the entire 24 hr experimental period
- effect on intraocular pressure (dog intraocular pressure): marked and highly significant decrease
